# Experimental data taken from patent publication EP0726944B1, “GL[…] NON-GLYCOSYLATED BACTERICIDAL/PE[…], AND METHODS FOR PRODUCING SAME” (INCYTE PHARMACEUTICALS, INC., priority 1993, dated 1995).
# Values joined by “and” are separate entries in the source; they are usually repeats but may differ in a detail not shown here. Identical values can stand only once.
# Key:
# [1] = system: mice; assay: Intranasal LPS challenge, TNFα in broncheoalveolar lavage fluid; format: in vivo; design: TNFα level in Broncheoalveolar Lavage Fluid, individual mouse: unit not given here; conditions: Polymyxin B 1.0µg (782 pmol) intranasal 20 minutes before LPS, BAL 1 hour after challenge
# Method: Normal anesthetized mice were challenged by the intranasal route with 10 ng/ml E. coli 0111:B4 LPS (results in Table 10). Twenty minutes before challenge, anesthetized mice were treated by the intranasal route with 50µl saline, BPI Protein or polymyxin B solution. At one hour after LPS challenge, mice were re-anesthetized, and 0.7 ml of saline containing 1% human serum albumin was added to the lungs via the trachea. The lungs were gently kneaded. A 0.5 ml volume broncheoalveolar lavage (BAL) fluid was aspirated, cells were pelleted by centrifugation, and the BAL sample was stored at -70°C. The TNFα level in the BAL fluid was determined by measuring cytotoxicity towards WEHI clone 13 mouse fibrosarcoma cells and is summarized in Table 10. Human rTNFα (Chiron) was used as the standard.
# [2] = system: human neutrophils; assay: Neutrophil stimulation by LPS: CR1/CR3 upregulation, flow cytometry; format: cell-based; conditions: stoichiometric calculation
# Method: Venous blood was drawn from healthy volunteer donors into acid citrate dextrose anticoagulant and immediately placed on ice. Five parts blood were mixed with 1 part cold Macrodex, and allowed to settle for 1.5 - 2 hours at 4°C. Leukocyte-rich plasma was washed 1X in cold HBSS, then resuspended in HBSS and layered over Ficoll-Paque. If significant erythrocyte contamination was present, the granulocyte pellet was subjected to hypotonic lysis. The cells were washed 2X in HBSS and resuspended in HBSS + 2% autologous plasma to give a final granulocyte concentration of 1 X 10^6/ml in the incubation mixture.
# Isolated neutrophils were kept on ice until incubated with and without stimuli at 37°C for 30 minutes. Following the incubation, cells were washed in a large volume of cold PBS + 0.05% Na Azide + 2% autologous plasma. […] Following a 30 minute incubation at 0°C and 2 more washes, the cells were analyzed by flow cytometry on a Becton Dickinson FACStar flow cytometer (Becton Dickinson, Mountain View, CA). […]
# Human neutrophils may be stimulated both in vivo and in vitro by lipopolysaccharide. […] Using the Fluorescence Activated Cell Sorter (FACS), fluorescence intensity of freshly isolated human neutrophils was measured following stimulation with increasing doses of 0111:B4 LPS (data not shown). […]
# [3] = system: Human Monocytes; assay: LPS-induced TNF production by adherent peripheral blood mononuclear cells, ELISA; format: cell-based
# Method: Human peripheral blood mononuclear cells were isolated on Ficoll-Paque (Pharmacia) gradients, washed 2X in pyrogen-free HBSS (Hazelton), and resuspended at 5 X 10^6/ml in RPMI (Gibco) media without serum. Two hundred µl of this cell suspension was incubated in each well of flat-bottom 96-well tissue culture dishes (Costar) for 2 hours at 37°C. Nonadherent cells were removed by washing 2X with RPMI + 10% autologous heat inactivated serum. Adherent mononuclear cells were stimulated with E. coli 0111:B4 LPS which had been preincubated for 30 minutes at 37°C with buffer, BPI Protein or polymyxin B (Gibco; 7900 U/ml). Supernatants were harvested four hours after LPS mixtures were added. Secretion of TNFα was quantitated by ELISA (Endogen) (results at Table 9).
# BPI Protein produced in soluble form at low temperature in E. coli and purified as described above in purification process A was tested for inhibition of endotoxin-mediated TNF induction by human adherent mononuclear cells. Blood collected in acid citrate dextrose containing vacutainer tubes (Becton Dickinson, Rutherford, NJ) was diluted in Hank's balanced salt solution (HBSS) minus Ca^+2 and Mg^+2. Mononuclear cells were separated using Ficol-Paque (Pharmacia Inc., Piscataway, N.J.), collected and washed three times in HBSS, and the proportion of monocytes was estimated by microscopic examination. Cells were brought up to an appropriate volume of RPMI 1640 with glutamine and antibiotics and without serum to give approximately 1 x 10^6 monocytes/ml. Cells were plated into 96 11 flat bottom tissue culture plates (Costar, Cambridge, MA), 200 µl/well, and incubated for two hours at 37°C in a humidified incubator with […]. Cells were then washed three times in warm RPMI 1640 without serum. After the last wash was aspirated, 200 µl/well RPMI 1640 with 10% autologous heat-inactivated serum was added. To each well was then added the 22µl of 10X solution of E. coli endotoxin preincubated in buffer, polymyxin B, or BPI Protein. Cells were incubated with the endotoxin mixture for four hours at 37°C, then the supernatants were collected and assayed for TNFα antigen by ELISA (Endogen, Inc., Boston, MA) (Figure 12) .
# [4] = system: Human Monocytes; assay: as above; format: cell-based; conditions: Table 8; 1000 ng/ml Polymyxin B; 0.1 % w/v killed S. aureus
# [5] = format: binding; conditions: data not shown
# Method: BPI Protein binds to LPS (data not shown). In these experiments, 4 µg of LPS/well was immobilized on 96 well plastic plates, then incubated with varying concentrations of BPI Protein, and developed with anti-BPI Protein polyclonal antisera. […]
substance,measurement,setting,value
Polymyxin B,"TNFα level in Broncheoalveolar Lavage Fluid, Mean ± SD",[1],253 ± 251
same,"TNFα level in Broncheoalveolar Lavage Fluid, individual mouse",[1]; mice 1-5,74 and 50 and 132 and 370 and 640
same,calculated amount of PMB required to inhibit 10 ng/ml of smooth LPS,[2],approximately 0.67 nM
same,TNF Produced in Response to LPS Preincubated with substance,"[3]; Table 5, 100 ng/ml, LPS 0 ng/ml",0 pg/mL
same,TNF Produced in Response to LPS Preincubated with substance,"[3]; Table 5, 100 ng/ml, LPS 0.1 ng/ml",0 pg/mL
same,TNF Produced in Response to LPS Preincubated with substance,"[3]; Table 5, 100 ng/ml, LPS 1 ng/ml",96 pg/mL
same,TNF Produced in Response to LPS Preincubated with substance,"[3]; Table 5, 100 ng/ml, LPS 10 ng/ml",2154 pg/mL
same,TNF Produced in Response to LPS Preincubated with substance,"[3]; Table 5, 500 ng/ml, LPS 0 ng/ml",0 pg/mL
same,TNF Produced in Response to LPS Preincubated with substance,"[3]; Table 5, 500 ng/ml, LPS 0.1 ng/ml",0 pg/mL
same,TNF Produced in Response to LPS Preincubated with substance,"[3]; Table 5, 500 ng/ml, LPS 1 ng/ml",0 pg/mL
same,TNF Produced in Response to LPS Preincubated with substance,"[3]; Table 5, 500 ng/ml, LPS 10 ng/ml",1490 pg/mL
same,TNF Produced in Response to LPS Preincubated with substance,"[3]; Table 7, 100 ng/ml PMB, LPS 0 ng/ml",0 pg/mL
same,TNF Produced in Response to LPS Preincubated with substance,"[3]; Table 7, 100 ng/ml PMB, LPS 0.1 ng/ml",79 pg/mL
same,TNF Produced in Response to LPS Preincubated with substance,"[3]; Table 7, 100 ng/ml PMB, LPS 1 ng/ml",1207 pg/mL
same,TNF Produced in Response to LPS Preincubated with substance,"[3]; Table 7, 100 ng/ml PMB, LPS 10 ng/ml",1270 pg/mL
same,TNF Produced in Response to S. aureus Preincubated with substance,"[3]; Table 8, 100 ng/ml Polymyxin B, 0.1 % w/v killed S. aureus",1541 ± 397 pg/mL
same,TNF Produced in Response to LPS Preincubated with substance,"[3]; Table 8, 100 ng/ml Polymyxin B, LPS 10 (unit not given)",601 ± 257 pg/mL
same,TNF Produced in Response to LPS Preincubated with substance,"[3]; Table 8, 100 ng/ml Polymyxin B, LPS 100 (unit not given)",1140 ± 73 pg/mL
same,TNF Produced in Response to LPS Preincubated with substance,"[3]; Table 8, 100 ng/ml Polymyxin B, LPS 1000 (unit not given)",1016 ± 20 pg/mL
same,TNF Produced in Response to LPS Preincubated with substance,"[3]; Table 8, 1000 ng/ml Polymyxin B, LPS 10 (unit not given)",333 ± 18 pg/mL
same,TNF Produced in Response to LPS Preincubated with substance,"[3]; Table 8, 1000 ng/ml Polymyxin B, LPS 100 (unit not given)",769 ± 101 pg/mL
same,TNF Produced in Response to LPS Preincubated with substance,"[3]; Table 8, 1000 ng/ml Polymyxin B, LPS 1000 (unit not given)",844 ± 144 pg/mL
same,TNF Produced in Response to S. aureus Preincubated with substance,[4],1685 ± 121 pg/mL
same,inhibition of BPI Protein binding to LPS,[5],inhibited
